Measurements as given in patent publication US20210009564A1, “CALPAIN MODULATORS AND THERAPEUTIC USES THEREOF” (BLADE THERAPERTICS, INC., priority 2018, published 2021).

How the values were obtained:
Human Calpain 1/NS1 = biological target: T1, Human Calpain 1/NS1 (Homo sapiens, UniProt P07384); assay: Calpain inhibition, continuous fluorescence (FRET substrate) assay, calpain 1; assay type: biochemical; conditions: SensoLyte 520 FRET substrate, 25C
T1 sequence (P07384 1-714): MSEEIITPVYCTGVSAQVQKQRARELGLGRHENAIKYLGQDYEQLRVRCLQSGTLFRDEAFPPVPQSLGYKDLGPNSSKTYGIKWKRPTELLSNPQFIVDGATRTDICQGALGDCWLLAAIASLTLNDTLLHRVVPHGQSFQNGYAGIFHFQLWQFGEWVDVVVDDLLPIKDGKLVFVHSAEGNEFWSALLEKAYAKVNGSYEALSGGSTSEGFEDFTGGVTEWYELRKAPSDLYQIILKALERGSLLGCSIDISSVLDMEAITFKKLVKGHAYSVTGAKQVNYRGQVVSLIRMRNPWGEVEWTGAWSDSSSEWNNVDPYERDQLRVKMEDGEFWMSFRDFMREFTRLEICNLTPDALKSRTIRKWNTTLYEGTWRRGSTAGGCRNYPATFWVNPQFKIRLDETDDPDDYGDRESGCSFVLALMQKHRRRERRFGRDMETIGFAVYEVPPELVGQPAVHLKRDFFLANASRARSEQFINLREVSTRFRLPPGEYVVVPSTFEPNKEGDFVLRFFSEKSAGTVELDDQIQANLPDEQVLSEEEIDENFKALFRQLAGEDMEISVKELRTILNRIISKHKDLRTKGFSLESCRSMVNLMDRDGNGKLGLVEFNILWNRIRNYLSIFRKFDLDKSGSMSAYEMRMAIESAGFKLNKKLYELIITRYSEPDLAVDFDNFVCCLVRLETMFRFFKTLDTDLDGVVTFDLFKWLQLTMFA
T1 sequence (P04632 1-268 partner): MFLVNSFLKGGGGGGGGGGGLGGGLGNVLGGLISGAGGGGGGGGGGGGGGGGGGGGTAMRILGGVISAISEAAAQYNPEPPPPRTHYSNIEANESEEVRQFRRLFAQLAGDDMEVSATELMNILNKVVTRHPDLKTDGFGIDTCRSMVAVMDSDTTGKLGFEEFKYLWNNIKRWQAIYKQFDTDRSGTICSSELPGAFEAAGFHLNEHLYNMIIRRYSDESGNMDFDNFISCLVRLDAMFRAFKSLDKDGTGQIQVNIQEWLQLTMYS
Outline: (§1)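 Continuous FRET read-out (ex 490/em 520 nm) of 5-FAM/QXL 520 substrate cleavage, started by adding substrate with CaCl2 for in-situ activation after enzyme–inhibitor preincubation at 25 °C. Buffer was Tris 50 mM pH 7.5, NaCl 100 mM, DTT 1 mM. IC50 fitted (4-parameter) from rates over 1-5 min.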

Human Calpain 2/NS1 = biological target: T2, Human Calpain 2/NS1 (Homo sapiens, UniProt P17655); assay: Calpain inhibition, continuous fluorescence (FRET substrate) assay, calpain 2; assay type: biochemical; conditions: SensoLyte 520 FRET substrate, 25C
T2 sequence (P17655 1-700): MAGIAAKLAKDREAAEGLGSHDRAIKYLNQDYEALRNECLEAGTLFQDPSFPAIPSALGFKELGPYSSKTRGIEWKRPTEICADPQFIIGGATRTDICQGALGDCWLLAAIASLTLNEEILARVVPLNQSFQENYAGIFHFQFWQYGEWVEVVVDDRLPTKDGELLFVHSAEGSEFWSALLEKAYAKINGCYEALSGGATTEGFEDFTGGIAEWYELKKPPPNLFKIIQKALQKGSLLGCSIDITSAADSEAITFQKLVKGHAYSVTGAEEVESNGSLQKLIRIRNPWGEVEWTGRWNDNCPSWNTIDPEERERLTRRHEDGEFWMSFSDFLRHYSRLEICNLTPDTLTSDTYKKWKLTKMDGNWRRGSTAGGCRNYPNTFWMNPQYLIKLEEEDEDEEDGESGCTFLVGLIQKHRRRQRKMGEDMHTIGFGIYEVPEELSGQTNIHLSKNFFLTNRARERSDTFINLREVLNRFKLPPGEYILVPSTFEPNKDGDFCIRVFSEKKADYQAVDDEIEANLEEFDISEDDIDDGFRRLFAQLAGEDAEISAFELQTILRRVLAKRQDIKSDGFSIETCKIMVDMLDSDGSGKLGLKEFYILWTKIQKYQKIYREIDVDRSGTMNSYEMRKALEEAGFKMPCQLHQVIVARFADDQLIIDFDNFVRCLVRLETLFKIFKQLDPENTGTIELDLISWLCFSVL
T2 sequence (P04632 1-268 partner): T1 sequence (P04632 1-268 partner)
Outline: as §1

Human Calpain 9/NS1 = biological target: T3, Human Calpain 9/NS1 (Homo sapiens, UniProt O14815); assay: Calpain inhibition, continuous fluorescence (FRET substrate) assay, calpain 9; assay type: biochemical; conditions: SensoLyte 520 FRET substrate, 25C
T3 sequence (O14815 1-690): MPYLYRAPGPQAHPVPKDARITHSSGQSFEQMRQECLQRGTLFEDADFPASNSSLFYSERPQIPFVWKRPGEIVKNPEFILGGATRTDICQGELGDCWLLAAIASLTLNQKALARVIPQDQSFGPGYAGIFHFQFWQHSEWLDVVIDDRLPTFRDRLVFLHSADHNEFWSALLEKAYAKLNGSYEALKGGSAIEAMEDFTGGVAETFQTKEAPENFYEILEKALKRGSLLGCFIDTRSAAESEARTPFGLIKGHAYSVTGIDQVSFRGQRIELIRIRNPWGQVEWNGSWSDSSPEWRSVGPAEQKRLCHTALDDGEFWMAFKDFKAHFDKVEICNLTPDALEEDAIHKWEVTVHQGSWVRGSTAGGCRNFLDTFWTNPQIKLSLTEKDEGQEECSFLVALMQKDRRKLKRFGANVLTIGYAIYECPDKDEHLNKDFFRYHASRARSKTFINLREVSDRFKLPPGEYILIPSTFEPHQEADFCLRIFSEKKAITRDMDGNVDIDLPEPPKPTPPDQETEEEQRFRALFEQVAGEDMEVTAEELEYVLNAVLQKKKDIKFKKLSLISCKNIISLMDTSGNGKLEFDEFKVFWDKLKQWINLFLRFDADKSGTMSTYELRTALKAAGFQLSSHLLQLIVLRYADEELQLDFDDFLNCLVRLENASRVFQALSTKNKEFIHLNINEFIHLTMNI
T3 sequence (P04632 1-268 partner): T1 sequence (P04632 1-268 partner)
Outline: as §1

[1] = system: Calpain activity in SH-SY5Y cells; assay: SH-SY5Y spectrin breakdown product (SBDP-150) western blot assay; assay type: cell-based; conditions: Homo sapiens; SH-SY5Y cells, 25 uM A23187, SBDP-150 western blot; read-out: SH-SY5Y Spectrin IC50
[2] = system: Calpain activity in SH-SY5Y cells; assay: SH-SY5Y Suc-LLVY-AMC fluorescence assay; assay type: cell-based; conditions: Homo sapiens; SH-SY5Y cells, 100 uM Suc-LLVY-AMC; read-out: SH-SY5Y + AMC IC50

| Structure (SMILES) | IC50 (Human Calpain 1/NS1) | IC50 (Human Calpain 2/NS1) | IC50 (Human Calpain 9/NS1) | IC50 [1] | IC50 [2] |
| --- | --- | --- | --- | --- | --- |
| COC(=O)C(=O)C(Cc1ccccc1)NC(=O)c1oc(C)nc1-c1ccccc1F (stereo not drawn) [Compound 42, METHYL 3-(4-(2-FLUOROPHENYL)-2-METHYLOXAZOLE-5-CARBOXAMIDO)-2-OXO-4-PHENYLBUTANOATE] | < 3 µM | < 3 µM | < 3 µM | < 10 µM | < 10 µM |
| NC(=O)C(=O)C(Cc1ccccc1)NC(=O)c1cn(C(F)F)nc1-c1ccoc1Cl (stereo not drawn) [Compound 20, N-(4-AMINO-3,4-DIOXO-1-PHENYLBUTAN-2-YL)-3-(2-CHLOROFURAN-3-YL)-1-(DIFLUOROMETHYL)-1H-PYRAZOLE-4-CARBOXAMIDE] | < 3 µM | < 3 µM | < 3 µM | < 10 µM | < 10 µM |
| Cn1cc(C(=O)NC(Cc2ccccc2)C(=O)C(N)=O)c(-c2cccc3ncoc23)n1 (stereo not drawn) [Compound 31, N-(4-AMINO-3,4-DIOXO-1-PHENYLBUTAN-2-YL)-3-(BENZO[D]OXAZOL-7-YL)-1-METHYL-1H-PYRAZOLE-4-CARBOXAMIDE] | < 3 µM | < 3 µM | < 3 µM | < 10 µM | < 10 µM |
| Cn1ncc2cccc(-c3nn(C(F)F)cc3C(=O)NC(Cc3ccccc3)C(=O)C(N)=O)c21 (stereo not drawn) [Compound 34, N-(4-AMINO-3,4-DIOXO-1-PHENYLBUTAN-2-YL)-1-(DIFLUOROMETHYL)-3-(1-METHYL-1H-INDAZOL-7-YL)-1H-PYRAZOLE-4-CARBOXAMIDE] | < 3 µM | < 3 µM | < 3 µM | 10 to 25 µM | < 10 µM |
| COC(=O)C(=O)C(Cc1ccccc1)NC(=O)c1cn(C)nc1-c1ccccc1F (stereo not drawn) [Compound 40, METHYL 3-(3-(2-FLUOROPHENYL)-1-METHYL-1H-PYRAZOLE-4-CARBOXAMIDO)-2-OXO-4-PHENYLBUTANOATE] | < 3 µM | < 3 µM | < 3 µM | > 25 µM | < 10 µM |
| NC(=O)C(=O)C(Cc1ccccc1)NC(=O)c1nsnc1-c1coc(Cl)c1 (stereo not drawn) [Compound 52, N-(4-AMINO-3,4-DIOXO-1-PHENYLBUTAN-2-YL)-4-(5-CHLOROFURAN-3-YL)-1,2,5-THIADIAZOLE-3-CARBOXAMIDE] | < 3 µM | < 3 µM | < 3 µM | 10 to 25 µM | > 25 µM |
| Cn1ncc2c(-c3nn(C(F)F)cc3C(=O)NC(Cc3ccccc3)C(=O)C(N)=O)cccc21 (stereo not drawn) [Compound 62, N-(4-AMINO-3,4-DIOXO-1-PHENYLBUTAN-2-YL)-1-(DIFLUOROMETHYL)-3-(1-METHYL-1H-INDAZOL-4-YL)-1H-PYRAZOLE-4-CARBOXAMIDE] | < 3 µM | < 3 µM | < 3 µM | < 10 µM | < 10 µM |
| Cn1cc(C(=O)NC(Cc2ccccc2)C(=O)C(N)=O)c(-c2cccc3ocnc23)n1 (stereo not drawn) [Compound 68, N-(4-AMINO-3,4-DIOXO-1-PHENYLBUTAN-2-YL)-3-(BENZO[D]OXAZOL-4-YL)-1-METHYL-1H-PYRAZOLE-4-CARBOXAMIDE] | < 3 µM | < 3 µM | < 3 µM | 10 to 25 µM | < 10 µM |
| Cc1cc(-c2nn(C)cc2C(=O)NC(Cc2ccccc2)C(=O)C(N)=O)c(C)o1 (stereo not drawn) [Compound 55, N-(4-AMINO-3,4-DIOXO-1-PHENYLBUTAN-2-YL-3-(2,5-DIMETHYLFURAN-3-YL)-1-METHYL-1H-PYRAZOLE-4-CARBOXAMIDE] | < 3 µM | < 3 µM | < 3 µM | > 25 µM | < 10 µM |
| Cn1cc(C(=O)NC(Cc2ccccc2)C(=O)C(N)=O)c(-n2cnc3ccc(F)cc32)n1 (stereo not drawn) [Compound 47, N-(4-AMINO-3,4-DIOXO-1-PHENYLBUTAN-2-YL)-3-(6-FLUORO-1H-BENZO[D]IMIDAZOL-1-YL)-1-METHYL-1H-PYRAZOLE-4-CARBOXAMIDE] | < 3 µM | < 3 µM | < 3 µM | 10 to 25 µM | > 25 µM |

More lines, now with the values ahead:

| IC50 (Human Calpain 1/NS1) | IC50 (Human Calpain 2/NS1) | IC50 (Human Calpain 9/NS1) | IC50 [1] | IC50 [2] | Structure (SMILES) |
| --- | --- | --- | --- | --- | --- |
| > 10 µM | > 10 µM | > 10 µM | > 25 µM | > 25 µM | O=C(NC(Cc1ccccc1)C(=O)c1nnn[nH]1)c1nsnc1-c1ccccc1 (stereo not drawn) [Compound 93, N-(1-OXO-3-PHENYL-1-(1H-TETRAZOL-5-YL)PROPAN-2-YL)-4-PHENYL-1,2,5-THIADIAZOLE-3-CARBOXAMIDE] |
| > 10 µM | > 10 µM | > 10 µM | > 25 µM | > 25 µM | O=C(NC(Cc1ccccc1)C(=O)c1nc[nH]n1)c1nsnc1-c1ccccc1 (stereo not drawn) [Compound 104, N-(1-OXO-3-PHENYL-1-(H-1,2,4-TRIAZOL-3-YL)PROPAN-2-YL)-4-PHENYL-1,2,5-THIADIAZOLE-3-CARBOXAMIDE] |
| < 3 µM | < 3 µM | < 3 µM | 10 to 25 µM | < 10 µM | Cc1nc(-c2cc(Cl)oc2Cl)c(C(=O)NC(Cc2ccccc2)C(=O)C(N)=O)o1 (stereo not drawn) [Compound 81, N-(4-AMINO-3,4-DIOXO-1-PHENYLBUTAN-2-YL)-4-(2,5-DICHLOROFURAN-3-YL)-2-METHYLOXAZOLE-5-CARBOXAMIDE] |
| < 3 µM | < 3 µM | < 3 µM | < 10 µM | < 10 µM | NC(=O)C(=O)C(Cc1ccccc1)NC(=O)c1nsnc1-c1ccoc1Cl (stereo not drawn) [Compound 79, N-(4-AMINO-3,4-DIOXO-1-PHENYLBUTAN-2-YL)-4-(2-CHLOROFURAN-3-YL)-1,2,5-THIADIAZOLE-3-CARBOXAMIDE] |
| < 3 µM | < 3 µM | < 3 µM | 10 to 25 µM | < 10 µM | Cc1nc(-c2ccoc2Cl)c(C(=O)NC(Cc2ccccc2)C(=O)C(N)=O)o1 (stereo not drawn) [Compound 90, N-(4-AMINO-3,4-DIOXO-1-PHENYLBUTAN-2-YL)-4-(2-CHLOROFURAN-3-YL)-2-METHYLOXAZOLE-5-CARBOXAMIDE] |
